According to a compilation of properties of binary mixtures (doi:10.1016/j.molliq.2016.09.077):

Assay: xn = mol fraction of the nth substance listed
Settings: 100 kPa

CO + CC[n+]1ccn(C)c1.O=S(=O)([N-]S(=O)(=O)C(F)(F)F)C(F)(F)F
x1 = 1
Settings	speed of sound [m/s]	viscosity [mPa·s]
303.15 K	1086.9	0.51
313.15 K	1054.5	0.45
323.15 K	1022.5	0.41

CC[n+]1ccn(C)c1.O=S(=O)([N-]S(=O)(=O)C(F)(F)F)C(F)(F)F + CO
Settings	speed of sound [m/s]	viscosity [mPa·s]
298.15 K, x2 = 0	1240.2	32.49
298.15 K, x2 = 0.0938	1236.3	26.33
298.15 K, x2 = 0.1965	1231.5	20.39
298.15 K, x2 = 0.2889	1225.3	15.83
298.15 K, x2 = 0.4005	1217.3	11.82
298.15 K, x2 = 0.5088	1207.8	8.77
298.15 K, x2 = 0.6909	1177.9	4.64
298.15 K, x2 = 0.7961	1159.9	2.86
298.15 K, x2 = 0.8978	1132.9	1.55
303.15 K, x2 = 0	1229.3	27.68
303.15 K, x2 = 0.0938	1225.2	22.39
303.15 K, x2 = 0.1965	1220.1	17.79
303.15 K, x2 = 0.2889	1214.2	13.73
303.15 K, x2 = 0.4005	1206.3	10.47
303.15 K, x2 = 0.5088	1196.7	7.7
303.15 K, x2 = 0.5988	1183.4	5.82
303.15 K, x2 = 0.6909	1166.9	4.25
303.15 K, x2 = 0.7961	1147.4	2.61
303.15 K, x2 = 0.8978	1120.1	1.43
308.15 K, x2 = 0	1218.5	23.29
308.15 K, x2 = 0.0938	1214.6	19.27
308.15 K, x2 = 0.1965	1208.9	15.16
308.15 K, x2 = 0.2889	1203.2	12.01
308.15 K, x2 = 0.5088	1185.5	6.82
308.15 K, x2 = 0.5988	1172.4	5.22
308.15 K, x2 = 0.6909	1154.9	3.84
308.15 K, x2 = 0.7961	1135.5	2.37
313.15 K, x2 = 0	1207.9	20.16
313.15 K, x2 = 0.0938	1203.9	16.71
313.15 K, x2 = 0.1965	1197.9	13.25
313.15 K, x2 = 0.2889	1192.3	10.57
313.15 K, x2 = 0.5988	1161.2	4.65
313.15 K, x2 = 0.7961	1122.7	2.16
313.15 K, x2 = 0.8978	1094.6	1.22
318.15 K, x2 = 0	1197.3	17.48
318.15 K, x2 = 0.0938	1193.3	14.63
318.15 K, x2 = 0.2889	1181.6	9.38
318.15 K, x2 = 0.4005	1173.4	7.26
318.15 K, x2 = 0.5088	1163.5	5.47
318.15 K, x2 = 0.5988	1150.2	4.22
318.15 K, x2 = 0.6909	1131.2	3.13
318.15 K, x2 = 0.7961	1110.4	1.98
318.15 K, x2 = 0.8978	1082	1.13
323.15 K, x2 = 0	1187	15.34
323.15 K, x2 = 0.0938	1182.8	12.94
323.15 K, x2 = 0.1965	1176.2	10.42
323.15 K, x2 = 0.2889	1170.9	8.38
323.15 K, x2 = 0.4005	1162.8	6.56
323.15 K, x2 = 0.5088	1152.6	4.94
323.15 K, x2 = 0.5988	1139.3	3.86
323.15 K, x2 = 0.6909	1119.6	2.87
323.15 K, x2 = 0.8978	1069.4	1.05

CC[n+]1ccn(C)c1.O=S(=O)([N-]S(=O)(=O)C(F)(F)F)C(F)(F)F + CCOC(C)=O
Settings	speed of sound [m/s]	viscosity [mPa·s]
298.15 K, x2 = 0	1240.2	32.49
298.15 K, x2 = 0.0986	1232.6	25
298.15 K, x2 = 0.1858	1225.5	20.15
298.15 K, x2 = 0.2977	1215.3	14.83
298.15 K, x2 = 0.3962	1203.4	10.88
298.15 K, x2 = 0.5051	1189.2	7.63
298.15 K, x2 = 0.5961	1180.3	5.44
298.15 K, x2 = 0.6909	1171.1	3.77
298.15 K, x2 = 0.7974	1158.2	2.24
298.15 K, x2 = 0.8979	1147.7	0.93
303.15 K, x2 = 0	1229.3	27.68
303.15 K, x2 = 0.0986	1221.4	21.28
303.15 K, x2 = 0.1858	1213.9	17.32
303.15 K, x2 = 0.5051	1175.9	6.47
303.15 K, x2 = 0.6909	1155.8	3.31
308.15 K, x2 = 0.0986	1210.4	18.31
308.15 K, x2 = 0.1858	1202.6	14.96
308.15 K, x2 = 0.3962	1178.5	8.3
308.15 K, x2 = 0.5051	1162.7	5.78
308.15 K, x2 = 0.5961	1151.7	4.15
308.15 K, x2 = 0.6909	1139.5	2.78
308.15 K, x2 = 0.7974	1123.4	1.63
308.15 K, x2 = 0.8979	1109	0.83
313.15 K, x2 = 0	1207.9	20.16
313.15 K, x2 = 0.0986	1199.5	15.97
313.15 K, x2 = 0.1858	1191.4	13.01
313.15 K, x2 = 0.2977	1179.8	9.91
313.15 K, x2 = 0.5961	1137.9	3.71
313.15 K, x2 = 0.6909	1124.4	2.48
313.15 K, x2 = 0.7974	1106.4	1.47
313.15 K, x2 = 0.8979	1089.8	0.8
318.15 K, x2 = 0	1197.3	17.48
318.15 K, x2 = 0.0986	1188.6	14
318.15 K, x2 = 0.2977	1168.3	8.8
318.15 K, x2 = 0.5961	1123.8	3.27
318.15 K, x2 = 0.6909	1109.4	2.3
318.15 K, x2 = 0.7974	1089.2	1.29
323.15 K, x2 = 0	1187	15.34
323.15 K, x2 = 0.0986	1178.9	12.36
323.15 K, x2 = 0.1858	1169.7	10.19
323.15 K, x2 = 0.2977	1156.8	7.87
323.15 K, x2 = 0.3962	1142.5	5.82
323.15 K, x2 = 0.5051	1124	3.9
323.15 K, x2 = 0.5961	1110	2.94
323.15 K, x2 = 0.7974	1071.9	1.16
323.15 K, x2 = 0.8979	1051.6	0.7

CCOC(C)=O + CC[n+]1ccn(C)c1.O=S(=O)([N-]S(=O)(=O)C(F)(F)F)C(F)(F)F
x1 = 1
Settings	speed of sound [m/s]	viscosity [mPa·s]
298.15 K	1140.8	0.42
308.15 K	1096	0.38
313.15 K	1073.7	0.36
318.15 K	1051.7	0.35
323.15 K	1029.5	0.33
